Our source for the MIC values is DBAASP.

In general, MIC refers to the smallest concentration in the dilution series that meets the test's criterion for growth inhibition.

Test in all cases: ≥ marks a high value that may be exact or a test limit, other limits are often not marked, values filed in µg/mL are converted to µM
For assay [1], the system named is Cronobacter sakazakii DPC 6440.
For assay [2], the system named is Listeria monocytogenes LO28.
The subject of assay [3] is Acinetobacter baumannii ATCC 19606.
The subject of assay [4] is Escherichia coli ATCC 25922.
Assay [5] deals with Escherichia coli BW25113 ΔsbmA.
The next assay deals with Escherichia coli BW25113.
A further assay has as its system Escherichia coli.
Assay [6] relates to Klebsiella pneumoniae ATCC 700603.
In assay [7] the test system is Pseudomonas aeruginosa ATCC 27853.
The subject of assay [8] is Salmonella enterica subsp. enterica serovar Typhimurium ATCC 14028.
Assay [9] has as its system Staphylococcus aureus ATCC 25923.
Assay [10] concerns Clavibacter michiganensis subsp. michiganensis DSM 46294.
In assay [11] the test system is Pectobacterium carotovorum subsp. carotovorum DSM 30168.
The subject of assay [12] is Pseudomonas corrugata DSM 7228.
Assay [13] has as its system Pseudomonas syringae pv. syringae DSM 10604.
Assay [14] relates to Pseudomonas syringae pv. tomato DC3000.
For assay [15], the system named is Staphylococcus aureus 90857.
In assay [16] the test system is Xanthomonas vesicatoria DSM 50861.
The test system of assay [17] is Escherichia coli DH5alpha.
The test system of assay [18] is Pseudomonas aeruginosa H188.

SMILES strings stand for the structures. Values after ≈ are worked out from the molar mass of the structure shown. Values joined by “and” are separate entries in the source; they are usually repeats but may differ in a detail not shown here. Identical values can stand only once. A value given as a limit tells only on which side of the number the result lay.

In the case of `CC[C@H](C)[C@H](NC(=O)[C@@H](N)Cc1c[nH]c2ccccc12)C(=O)N[C@@H](CCC(N)=O)C(=O)N1CCC[C@H]1C(=O)N[C@@H](CCCCN)C(=O)N[C@@H](C)C(=O)N[C@@H](CCCCN)C(=O)N[C@H](C(=O)N[C@H](C(=O)N1CCC[C@H]1C(=O)N[C@@H](Cc1ccc(O)cc1)C(=O)N[C@H](C(=O)N[C@@H](CCCN=C(N)N)C(=O)N[C@@H](Cc1ccc(O)cc1)C(=O)N[C@@H](CC(C)C)C(=O)O)C(C)C)[C@@H](C)CC)C(C)C` [WIQPKAKVIPYVRYL], the minimum inhibitory concentration (MIC) in assay [1] is ≥ 78.1 µM; in assay [2], 19.5 µM (≈ 36.6 µg/mL).

Regarding `CC[C@H](C)[C@H](NC(=O)[C@@H]1CCCN1C(=O)[C@@H]1CCCN1C(=O)[C@H](CCCN=C(N)N)NC(=O)[C@H](Cc1ccccc1)NC(=O)[C@@H](N)CCCN=C(N)N)C(=O)N[C@@H](CCCN=C(N)N)C(=O)N[C@@H](CCCN=C(N)N)C(=O)N1CCC[C@H]1C(=O)N1CCC[C@H]1C(=O)N[C@H](C(=O)N[C@@H](CCCN=C(N)N)C(=O)N1CCC[C@H]1C(=O)N1CCC[C@H]1C(=O)N[C@@H](Cc1ccccc1)C(=O)N[C@@H](Cc1ccc(O)cc1)C(=O)N1CCC[C@H]1C(=O)O)[C@@H](C)CC` [RFRPPIRRPPIRPPFYP], the minimum inhibitory concentration (MIC) in [3] was 64 µM (≈ 138 µg/mL); in assay [4] it was 16 µM (≈ 34.6 µg/mL); in [5] it was ≥ 64 µM; against Escherichia coli BW25113, 11.3 µM (≈ 24.5 µg/mL); against Escherichia coli it was 5.66 µM (≈ 12.2 µg/mL); in assay [6], > 64 µM. Moreover, the minimum inhibitory concentration (MIC) is > 64 µM in assay [7], 32 µM (≈ 69.2 µg/mL) in assay [8] and > 64 µM in assay [9].

Take `CC[C@H](C)[C@H](NC(=O)[C@@H](N)Cc1c[nH]c2ccccc12)C(=O)N[C@@H](CCC(N)=O)C(=O)N[C@@H](C)C(=O)N[C@@H](CCCCN)C(=O)N[C@H](C(=O)N[C@@H](CCCCN)C(=O)N[C@H](C(=O)N[C@H](C(=O)N1CCC[C@H]1C(=O)N[C@@H](Cc1ccc(O)cc1)C(=O)N[C@H](C(=O)N[C@@H](CCCN=C(N)N)C(=O)N[C@@H](Cc1ccc(O)cc1)C(=O)N[C@@H](CC(C)C)C(=O)O)C(C)C)[C@@H](C)CC)C(C)C)[C@@H](C)O` [WIQAKTKVIPYVRYL]: the minimal inhibitory concentration (MIC) in assay [1] was ≥ 39.1 µM; in [2], 9.77 µM (≈ 18.3 µg/mL).

As for `CC[C@H](C)[C@H](NC(=O)[C@@H]1CCCN1C(=O)[C@@H]1CCCN1C(=O)[C@H](CCCN=C(N)N)NC(=O)[C@H](Cc1ccccc1)NC(=O)[C@@H](N)CCCN=C(N)N)C(=O)N[C@@H](CCCN=C(N)N)C(=O)N[C@@H](CCCN=C(N)N)C(=O)N1CCC[C@H]1C(=O)N1CCC[C@H]1C(=O)N[C@H](C(=O)N[C@@H](CCCN=C(N)N)C(=O)N1CCC[C@H]1C(=O)N1CCC[C@H]1C(=O)N[C@@H](Cc1ccccc1)C(=O)N[C@@H](Cc1ccc(O)cc1)C(=O)N1CCC[C@H]1C(=O)N1CCC[C@H]1C(=O)N[C@@H](Cc1ccccc1)C(=O)O)[C@@H](C)CC` [RFRPPIRRPPIRPPFYPPF], the minimum inhibitory concentration (MIC) in [3] was 32 µM (≈ 77 µg/mL); in assay [4] it was 12 µM (≈ 28.9 µg/mL); in assay [5], ≥ 32 µM; against Escherichia coli BW25113, 8 µM (≈ 19.3 µg/mL); in assay [6], > 64 µM; in assay [7] it was > 64 µM. For the same molecule, the MIC in assay [8] is 32 µM (≈ 77 µg/mL); in assay [9], > 64 µM.

Turning to `CC[C@H](C)[C@H](NC(=O)[C@@H](N)Cc1c[nH]c2ccccc12)C(=O)N[C@@H](CCC(N)=O)C(=O)N1CCC[C@H]1C(=O)N[C@@H](C)C(=O)N[C@H](C(=O)N[C@@H](CCCCN)C(=O)N[C@H](C(=O)N[C@H](C(=O)N1CCC[C@H]1C(=O)N[C@@H](Cc1ccc(O)cc1)C(=O)N[C@H](C(=O)N[C@@H](C)C(=O)N[C@@H](Cc1ccc(O)cc1)C(=O)N[C@@H](CC(C)C)C(=O)O)C(C)C)[C@@H](C)CC)C(C)C)[C@@H](C)O` [WIQPATKVIPYVAYL], the MIC is ≥ 625 µM in assay [1] and ≥ 156 µM in [2].

Consider `CC[C@H](C)[C@H](NC(=O)[C@H](CCCN=C(N)N)NC(=O)[C@@H](N)Cc1c[nH]c2ccccc12)C(=O)N[C@@H](CCCN=C(N)N)C(=O)N1CCC[C@H]1C(=O)N[C@@H](CCCN=C(N)N)C(=O)N1CCC[C@H]1C(=O)N1CCC[C@H]1C(=O)N[C@@H](CCCN=C(N)N)C(=O)N[C@@H](CC(C)C)C(=O)N1CCC[C@H]1C(=O)N[C@@H](CCCN=C(N)N)C(=O)N[C@@H](Cc1c[nH]c2ccccc12)C(=O)N[C@@H](CCCN=C(N)N)C(=O)N1CCC[C@H]1C(=O)N[C@@H](CCCN=C(N)N)C(=O)O` [WRIRPRPPRLPRWRPR], for which the MIC was 32 µM (≈ 70.3 µg/mL) in assay [3]; 1.5 µM and 2 µM in assay [4]; 16 µM and ≥ 32 µM in [5]; 2 µM (≈ 4.39 µg/mL) in the assay on Escherichia coli BW25113; 8 µM (≈ 17.6 µg/mL) in assay [6]; > 64 µM in [7]. Further, in [9], the MIC was > 64 µM.

With `CC[C@H](C)[C@H](NC(=O)[C@H](CC(C)C)NC(=O)[C@H](CCCN=C(N)N)NC(=O)[C@H](CCCN=C(N)N)NC(=O)[C@H](CC(C)C)NC(=O)[C@@H](NC(=O)[C@H](CCCN=C(N)N)NC(=O)[C@H](CCCN=C(N)N)NC(=O)[C@@H](NC(=O)[C@@H](NC(=O)[C@H](CCCN=C(N)N)NC(=O)[C@@H](N)CC(C)C)[C@@H](C)CC)[C@@H](C)CC)[C@@H](C)CC)C(N)=O` [LRIIRRILRRLI], the minimal inhibitory concentration (MIC) in assay [10] worked out at 1.57 µM (≈ 2.5 µg/mL); in [11], 1.57 µM (≈ 2.5 µg/mL); in assay [12] it was 1.57 µM (≈ 2.5 µg/mL); in assay [13], 1.57 µM (≈ 2.5 µg/mL); in assay [14] it was 0.628 µM (≈ 0.999 µg/mL); in assay [15] it was 25 µM (≈ 39.8 µg/mL). In assay [16], this molecule had an MIC of 0.628 µM (≈ 0.999 µg/mL).

As for `CC[C@H](C)[C@H](NC(=O)[C@@H](N)Cc1c[nH]c2ccccc12)C(=O)N[C@@H](CCC(N)=O)C(=O)N1CCC[C@H]1C(=O)N[C@@H](CCCCN)C(=O)N[C@H](C(=O)N[C@@H](CCCCN)C(=O)N[C@H](C(=O)N[C@H](C(=O)N1CCC[C@H]1C(=O)N[C@@H](Cc1ccc(O)cc1)C(=O)N[C@H](C(=O)N[C@@H](CCCN=C(N)N)C(=O)N[C@@H](Cc1ccc(O)cc1)C(=O)N[C@@H](CC(C)C)C(=O)O)C(C)C)[C@@H](C)CC)C(C)C)[C@@H](C)O` [WIQPKTKVIPYVRYL], the minimal inhibitory concentration (MIC) was ≥ 78.1 µM in [1] and ≥ 39.1 µM in [2].

Take `CC[C@H](C)[C@H](NC(=O)[C@H](C)NC(=O)[C@H](CCCCN)NC(=O)[C@H](CC(C)C)NC(=O)[C@H](C)NC(=O)[C@@H](NC(=O)[C@H](Cc1cnc[nH]1)NC(=O)[C@H](CC(C)C)NC(=O)[C@H](CC(C)C)NC(=O)[C@@H](NC(=O)[C@H](CCCCN)NC(=O)[C@H](CCCCN)NC(=O)[C@H](C)NC(=O)[C@H](CO)NC(=O)[C@H](CCCCN)NC(=O)[C@H](Cc1ccccc1)NC(=O)[C@@H](NC(=O)[C@H](CCCCN)NC(=O)[C@H](CC(C)C)NC(=O)[C@H](Cc1ccccc1)NC(=O)[C@H](CO)NC(=O)[C@H](CCCCN)NC(=O)[C@H](Cc1c[nH]c2ccccc12)NC(=O)[C@H](CCCCN)NC(C)=O)[C@@H](C)O)[C@@H](C)O)[C@@H](C)O)C(=O)N[C@@H](CO)C(=O)N[C@@H](CO)C(N)=O` [KWKSFLKTFKSAKKTLLHTALKAISS]: the MIC turned out to be 0.337 µM (≈ 1.01 µg/mL) in [4]; 1.35 µM (≈ 4.06 µg/mL) in assay [17]; 0.337 µM (≈ 1.01 µg/mL) against Escherichia coli; 0.675 µM (≈ 2.03 µg/mL) in assay [7]; 0.675 µM (≈ 2.03 µg/mL) in assay [18].

As to `CC[C@H](C)[C@H](NC(=O)[C@H](C)NC(=O)[C@H](CCCCN)NC(=O)[C@H](CC(C)C)NC(=O)[C@H](C)NC(=O)[C@@H](NC(=O)[C@H](Cc1cnc[nH]1)NC(=O)[C@H](CC(C)C)NC(=O)CNC(=O)[C@@H](NC(=O)[C@H](CCCCN)NC(=O)[C@H](CCCCN)NC(=O)[C@H](C)NC(=O)[C@H](CO)NC(=O)[C@H](CCCCN)NC(=O)[C@H](Cc1ccccc1)NC(=O)[C@@H](NC(=O)[C@H](CCCCN)NC(=O)[C@H](CC(C)C)NC(=O)[C@H](Cc1ccccc1)NC(=O)[C@H](CO)NC(=O)[C@H](CCCCN)NC(=O)[C@H](Cc1c[nH]c2ccccc12)NC(=O)[C@H](CCCCN)NC(C)=O)[C@@H](C)O)[C@@H](C)O)[C@@H](C)O)C(=O)N[C@@H](CO)C(=O)N[C@@H](CO)C(N)=O` [KWKSFLKTFKSAKKTGLHTALKAISS], the MIC came out at 2.75 µM (≈ 8.11 µg/mL) in assay [4]; 2.75 µM (≈ 8.11 µg/mL) in [17]; 5.5 µM (≈ 16.2 µg/mL) in the assay with Escherichia coli; 11 µM (≈ 32.5 µg/mL) in assay [7]; 2.75 µM (≈ 8.11 µg/mL) in [18].
